Measured values from US20220160656A1, “INTRANASALLY ADMINISTERED ANTIHISTAMINES AND USES THEREOF” (DBBH, LLC, priority 2019, published 2022).

Columns and labels:
[1] = in vitro; conditions: human; for recovery at 120 min: pH 7.4; for Papp at 120 min: apical dosing
Protocol: (§1) EpiAirway tissues, plated in 24-well plates, and accompanying culture medium and assay buffer solutions, were purchased from MatTek Corporation (Ashland, Mass.). According to the EpiAirway AIR-100 Use Protocol provided by MatTek, the tissues were returned to culture immediately upon receipt. In a tissue culture hood, using sterile technique, 1.0 mL of cold medium (AIR-100-ASY) was dispensed into each well of the 6-well plate (n=3) and one tissue insert was transferred to each of the wells. The apical surface of the tissue was exposed to the air (no medium was added to the insert). The tissues were equilibrated overnight at 37° C. in a 5% CO2 incubator. The culture medium was then replaced with fresh, pre-warmed medium until use.
(§2) The unidirectional permeation experiment was conducted according to protocol 18APCIP2 and relevant SOPs of Absorption Systems. Prior to the permeability assay, the culture medium in the plate was aspirated; and ˜1 mL of Dulbecco's phosphate-buffered saline (DPBS) was added to the well to remove any remaining residue of culture medium from the underside of the insert. The tissues were transferred to a 24-well plate with DPBS (750 μL) in each well as receiver, and dosing solution (400 μL) was added to each insert. A 100 μL aliquot was immediately removed as the 0-minute donor sample. Receiver samples (200 μL) were collected at 30, 60, and 120 minutes, replaced with an equal volume of fresh pre-warmed blank buffer at 30 and 60 minutes. The donor side was sampled (100 μL) at 0 and 120 minutes. The assay plate was placed in a humidified CO2 incubator at 37° C. during the assay period.
(§3) After 120 minutes, the tissues were rinsed with DPBS and gently dried with tissue wipes after aspiration of the assay buffer. The insert membranes with tissues attached were carefully removed from the insert apparatus, placed in a tared centrifuge tube, and weighed.
(§4) The apparent permeability coefficient (Papp) and recovery were calculated as follows:
Papp=(dCr/dt)×Vr/(A×Cini) (1)
(§5) Recovery (%)=[((Cr,final×Vr)+(Cd,final×Vd))/(Cini×Vd)]×100 (2)
(§6) Recovery (%)=[((Cr,final×Vr)+(Cd,final×Vd)+(Tissue Accumulation))/(Cini×Vd)]×100 (3)
(§7) where, • dCr/dt is the slope of cumulative receiver concentration vs. time in μM s^−1; • Vr is the volume of the receiver compartment; • Vd is the volume of the donor compartment; • A is the diffusional area of the membrane; • Cini is the donor concentration at 0 minutes in μM; • CD,final is the donor concentration at 120 minutes in μM; • Cr,final is the receiver concentration at 120 minutes in μM.
(§8) With DPBS, pH 7.4 used on both the donor and receiver sides, permeability was initiated with addition of 0.4 mL of dosing solution into the inserts and of 0.75 mL of blank buffer into the wells of the assay plate. The assay was performed for 120 minutes in a humidified incubator at 37° C.

[2] = test system: EpiAirway tissues; conditions: EpiAirway tissues after 120 minutes
Protocol: as §1, §2, §3, §4
Papp=(dCr/dt)×Vr/(A×Cini) (1)
as §5, §6, §7, §8

[3] = test system: rhinovirus colds; conditions: intranasal administration in a phosphate buffer vehicle, patients; cited from earlier work
[4] = in vitro; conditions: pH 7.4

| Compound | recovery at 120 min [1] [%] | Tissue Accumulation Average ± SD [2] [nmol/mg] | Tissue Accumulation R1 ([2]; replicate R1) [nmol/mg] | Tissue Accumulation R3 ([2]; replicate R3) [nmol/mg] | therapeutic effect in reducing signs and symptoms of rhinovirus colds [3] | recovery at 120 min, 100 μM [4] [%] | Papp at 120 min ([1]; pH 7.4, Papp Average ± SD, EpiAirway tissues, DPBS pH 7.4, diphenhydramine 100 μM, atenolol 100 μM, caffeine 50 μM co-dosed) [×10⁻⁶ cm/s] | Papp at 120 min ([1]; pH 7.4, Papp R1, EpiAirway tissues, DPBS pH 7.4, 120 minutes, 37° C., replicate R1) [×10⁻⁶ cm/s] | Papp at 120 min ([1]; pH 7.4, Papp R2, EpiAirway tissues, DPBS pH 7.4, replicate R2) [×10⁻⁶ cm/s] | Papp at 120 min ([1]; pH 7.4, Papp R3, EpiAirway tissues, DPBS pH 7.4, replicate R3) [×10⁻⁶ cm/s] |
| --- | --- | --- | --- | --- | --- | --- | --- | --- | --- | --- |
| CC(C)NCC(O)COc1ccc(CC(N)=O)cc1 (stereo not drawn) [Atenolol] | 98.5 |  |  |  |  |  |  |  |  |  |
| CN(C)CCOC(c1ccccc1)c1ccccc1 [Diphenhydramine] | 103 | 0.212 ± 0.0222 | 0.188 | 0.218 | no therapeutic effect | 86.3 |  |  |  |  |
| Cn1c(=O)c2c(ncn2C)n(C)c1=O [Caffeine] | 96.9 |  |  |  |  |  | 29.1 | 30.9 | 28.2 | 28.2 |
